Assay results published in PMC10439028, “SGLT5 is the renal transporter for 1,5-anhydroglucitol, a major player in two rare forms of neutropenia” (Cellular and Molecular Life Sciences: CMLS, 2023).
Changes are numbered by the printed parent chain.

Assays:
[1] = molecular target: T1, hSGLT5 Arg401His (Homo sapiens, UniProt A0PJK1, R401H); assay: Inhibition of 10 µM 1,5-AG transport by SGLT5 variant Arg401His; assay type: cell-based; details: Fig. 5D
T1 construct: pUB83-hSGLT5-iso2 as well as the various SGLT5 mutants obtained were used to transduce HEK293T cells; expressed in transfected cells; host or cells: HEK293T, lentiviral transduction (pUB83)
T1 sequence (A0PJK1 1-596 R401H): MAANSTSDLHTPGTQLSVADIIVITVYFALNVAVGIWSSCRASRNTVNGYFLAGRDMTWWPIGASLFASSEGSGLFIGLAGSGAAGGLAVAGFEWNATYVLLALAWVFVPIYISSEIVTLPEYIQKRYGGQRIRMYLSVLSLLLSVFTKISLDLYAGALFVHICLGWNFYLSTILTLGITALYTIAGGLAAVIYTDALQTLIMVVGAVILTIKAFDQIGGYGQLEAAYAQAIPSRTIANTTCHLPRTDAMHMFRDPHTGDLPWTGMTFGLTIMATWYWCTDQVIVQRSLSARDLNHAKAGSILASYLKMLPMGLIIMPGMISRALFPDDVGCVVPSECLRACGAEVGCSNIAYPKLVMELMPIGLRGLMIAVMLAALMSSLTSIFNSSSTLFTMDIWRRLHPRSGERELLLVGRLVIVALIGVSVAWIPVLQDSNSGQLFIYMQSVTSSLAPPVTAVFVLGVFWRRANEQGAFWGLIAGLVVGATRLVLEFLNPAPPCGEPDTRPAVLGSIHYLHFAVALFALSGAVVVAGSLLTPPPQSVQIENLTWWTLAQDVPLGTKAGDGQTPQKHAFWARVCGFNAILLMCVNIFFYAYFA
Protocol: The transport experiments to study the specificity of SGLT4 or SGLT5, were performed in the presence of 10 µM U-[^14C + ^12C]-mannose (for SGLT4) or 2-[^3H + ^1H]-1,5-AG (for SGLT5) and increasing concentrations of various sugars tested. The transport experiments to study the inhibition of empagliflozin, dapagliflozin or remogliflozin, on the transport of 1,5-AG by SGLT5 or its variants were performed in the presence of 10 µM 2-[^3H + ^1H]-1,5-AG and increasing concentrations of the various gliflozins tested.
SGLT5 mutants were created using the quick-change site directed mutagenesis method that enables effective mutagenesis without subcloning of the amplified PCR products. Complementary primer pairs carrying the desired replacements (Supplementary Table 3) were designed using an online tool (https://www.agilent.com/store/primerDesignProgram.jsp). The PCR protocol was carried out following the manufacturer instructions regarding the KOD HOT Start polymerase kit (TOYOBO™, Novagen). The amplified DNA was cleaned-up from the reactions constituents using the GeneJET PCR purification Kit (Thermo Scientific™) and the size of the DNA fragment were verified by DNA agarose-gel electrophoresis. […]

[2] = molecular target: T2, hSGLT5 Gly471Glu (Homo sapiens, UniProt A0PJK1, G471E); assay: 1,5-AG uptake in HEK293T cells overexpressing SGLT5 variant Gly471Glu; assay type: cell-based
T2 construct: pUB83-hSGLT5-iso2 as well as the various SGLT5 mutants obtained were used to transduce HEK293T cells; expressed in transfected cells; host or cells: HEK293T, lentiviral transduction (pUB83)
T2 sequence (A0PJK1 1-596 G471E): T1 sequence (A0PJK1 1-596 R401H) with H401R, G471E
Protocol: For a typical transporter experiment we proceeded as follows. […] To minimize cell loss during the various washing steps in the radioactive uptake experiments, the wells where the cells were seeded were previously coated with poly- D-lysine, which improved their adhesion to the plastic surface of the wells. For this, each well of the 24-well plates was treated with 200 µl of a 0.01% poly-L-lysine solution for 10 min, washed 3 times with 1 ml of sterilized water and left to dry for 2 h. Only then could the 24-well plates be seeded with the appropriate cell lines and cultured overnight at 37 °C in 5% CO2.
On day two, the radioactive uptake assay could be performed. The cell culture media was removed by aspiration and cells were incubated for 20 min at 37 °C and 5% CO2 with a basal medium (10 mM HEPES, pH 7.4, 1 mM CaCl2, 1 mM MgCl2, 2 mM KCl) containing 140 mM choline chloride to deplete intracellular […] ions. This was subsequently replaced with the uptake medium (basal medium + 140 mM NaCl, 25 μM cytochalasin B, 1 mg/ml BSA) containing either radioactive U-[^14C]-mannose (15,000 cpm/well) or 2-[^3H]-1,5-AG (30,000 cpm/well) and respectively, non-radioactive mannose or 1,5-AG, at the required concentration in the experiment. Importantly, when measuring the transport of mannose, the uptake media also contained 0.5 mM glucose. This resulted from the need to reduce the background transport of mannose in control HEK293T cells in order to optimize the transport assay for this sugar in our model cell lines. […]
Once the uptake medium was added to the cells, the plates were incubated at 37 °C in 5% CO2 during the required time. […] In each experiment, the transport activities were calculated after subtracting a “blank” value, corresponding to the radioactivity in the appropriate control cells (HEK293T cells that were stably or transiently transfected with one of the parent plasmids pEF6/MycHisA, pEF6HisB, pUB82 or pUB83 with no inserted cDNA) that were analyzed in parallel. […]

effect of mutation on concentration of empagliflozin needed to inhibit SGLT5 [1]	Compound	Vmax ([2]; variant Gly471Glu)	effect of mutation on ability of SGLT5 to transport 1,5-AG ([2]; variant Gly471Glu)	Km for 1,5-AG ([2]; variant Gly471Glu (rs61741107))
did not affect significantly	OC[C@H]1O[C@@H](c2ccc(Cl)c(Cc3ccc(O[C@H]4CCOC4)cc3)c2)[C@H](O)[C@@H](O)[C@@H]1O [empagliflozin]			
	OC[C@H]1OC[C@H](O)[C@@H](O)[C@@H]1O [1,5-AG, 1,5-anhydroglucitol]	No transport	abolished	No transport
